Measured values published in patent US20240041878A1, “APELIN RECEPTOR MODULATORS FOR TREATMENT OF A DISORDER OR DISEASE ASSOCIATED WITH BBB PERMEABILITY” (BioAge Labs, Inc., priority 2022, published 2024).

Tests used:
Mouse primary astrocytes = experiment: Astrocyte glutamate uptake; format: cell-based; conditions: RAC+BGE-105 [10 nM, 50 nM, 250 nM] versus RAC
Procedure: To stimulate astrocytes into a reactive state found in aging and neurodegenerative diseases per previous publications (Liddelow et al., 2017; Barbar et al., 2020), a combination of the cytokines TNF-α and IL-1α, and complement factor C1q, were added at 30 ng/mL, 3 ng/mL, and 400 ng/mL, respectively, into astrocyte culture media to make 'reactive astrocyte cocktail' (RAC) media. […] Bachem, Cat. #4029110), BAY-11-7082 (50 μM; Abcam, Cat. #ab141228) or equal volume of vehicle (0.01% DMSO in PBS) (hereafter referred to as 'RAC treatment'). […] Fresh HBSS was added to each well and 100 μM glutamate (Sigma, Cat. #G1251) was added to each well. Empty wells not containing cells were filled with HBSS and 100 μM [NT] negative control. Cells were incubated at room temperature for 3 hours before HBSS was collected and glutamate concentration determined by colorimetric assay (Sigma, Cat. #MAK004). Relative change in glutamate uptake was calculated compared to negative control wells.

[1] = tested on: apelin receptor (APJ) signaling in astrocytes; experiment: Western blot of APJ, p-AKT and t-AKT in astrocytes; format: cell-based, mouse
Procedure: To stimulate astrocytes into a reactive state found in aging and neurodegenerative diseases per previous publications (Liddelow et al., 2017; Barbar et al., 2020), a combination of the cytokines TNF-α and IL-1α, and complement factor C1q, were added at 30 ng/mL, 3 ng/mL, and 400 ng/mL, respectively, into astrocyte culture media to make ‘reactive astrocyte cocktail’ (RAC) media. Astrocytes were cultured in RAC media for 24 hours, with or without various concentrations of BGE-105 (10 nM, 50 nM, 250 nM final concentration), (Pyr^1)-Apelin-13 (50 nM; Bachem, Cat. #4029110), BAY-11-7082 (50 μM; Abcam, Cat. #ab141228) or equal volume of vehicle (0.01% DMSO in PBS) (hereafter referred to as ‘RAC treatment’). Cells in Groups 3-6 were treated with RAC for 24 hours, with or without the test compounds (n=4 per group). • Group 1: Control [CON] • Group 2: CON+BGE-105 (50 nM) [CON+105] • Group 3: Reactive control treated with RAC only [RAC] • Group 4: RAC+BGE-105 (50 nM) [RAC+105] • Group 5: RAC+Pyrm-Apelin-13 (50 nM) • Group 6: RAC+BAY-11-7082 (NF-κB inhibitor; 50 μM) [RAC+BAY]
Mice were handled in accordance with principles and guidelines established by the “Guide for the Care and Use of Laboratory Animals” and overseen by the BioAge Lab's Institutional Animal Care and Use Committee (IACUC). Mouse primary astrocytes were isolated and cultured in 0.01% poly-L-lysine coated 6- or 12-well tissue culture plates at 200,000 or 120,000 cells/well, respectively, with astrocyte growth media as previously described in (Lundquist et al. 2022. Knockdown of Astrocytic Monocarboxylate Transporter 4 in the Motor Cortex Leads to Loss of Dendritic Spines and a Deficit in Motor Learning. Mol Neurobiol 59, 1002-1017). […]
For analysis of astrocyte protein expression, cells were washed after RAC treatment with PBS and lysed with Neuronal Protein Extraction Reagent (Thermo Scientific, Cat. #87792), centrifuged to pellet debris, and supernatant was transferred to a new tube. Total protein concentration was measured by BCA protein assay (Thermo Scientific, Cat. #PI23227).

[2] = tested on: healthy volunteers aged 65 or older; experiment: Phase 1b clinical trial, 10 days of bed rest; format: in vivo, human; conditions: infusions
Source text: The study described herein characterizes the effects of BGE-105 on immune biomarkers in human in a Phase 1b clinical trial directed to treatment of muscular atrophy. […] The double-blind, placebo-controlled trial evaluated the safety and pharmacodynamics of BGE-105. Twenty-one volunteers underwent 10 days of bed rest while receiving infusions of BGE-105 or placebo. Biological samples from treated and placebo groups were collected on Day 6 and Day 11.

[3] = RAC+BGE-105 [50 nM] versus CON and RAC

COc1cccc(OC)c1-n1c(NS(=O)(=O)[C@@H](C)[C@H](C)c2ncc(C)cn2)nnc1-c1cncc(C)c1 [BGE-105, (2S,3R)—N-(4-(2,6-dimethoxyphenyl)-5-(5-methyl-3-pyridinyl)-4H-1,2,4-triazol-3-yl)-3-(5-methyl-2-pyrimidinyl)-2-butanesulfonamide]
percentage of glutamate uptake in RAC astrocytes (Mouse primary astrocytes): significantly and statistically increased
increase of p-AKT expression level, as compared to t-AKT, normalized with β-actin ([1]; RAC+BGE-105 [50 nM]): about 2 folds
APJ protein expression normalized with β-actin [1, 3]: No significant fold change
t-AKT expression [1, 3]: remained comparable
tolerability ([2]; 10 days of bed rest): well tolerated
muscle atrophy relative to placebo ([2]; 10 days of strict bed rest): statistically significant prevention
